According to publication PMC6458995, “MAP4K4 Inhibition Promotes Survival of Human Stem Cell-Derived Cardiomyocytes and Reduces Infarct Size In Vivo” (Cell Stem Cell, 2019):

How the values were obtained:
Test in all cases: Dundee kinase panel
Format in all cases: biochemical
Settings in all cases: for remaining activity at 1 µM: read-out: residual activity
[1] = molecular target: T1, BTK (Homo sapiens, UniProt Q06187)
T1 construct: lines 1-140) and Reaction Biology
Description: (§1) Compounds were screened at 1 μM. For key hits, pIC50 values were then determined by HTRF as above. […] Stability in mouse and human liver microsomes was determined by Cyprotex.

[2] = molecular target: T2, CAMKKb (Homo sapiens, UniProt Q96RR4)
T2 construct: lines 1-140) and Reaction Biology
T2 sequence (Q96RR4 whole entry): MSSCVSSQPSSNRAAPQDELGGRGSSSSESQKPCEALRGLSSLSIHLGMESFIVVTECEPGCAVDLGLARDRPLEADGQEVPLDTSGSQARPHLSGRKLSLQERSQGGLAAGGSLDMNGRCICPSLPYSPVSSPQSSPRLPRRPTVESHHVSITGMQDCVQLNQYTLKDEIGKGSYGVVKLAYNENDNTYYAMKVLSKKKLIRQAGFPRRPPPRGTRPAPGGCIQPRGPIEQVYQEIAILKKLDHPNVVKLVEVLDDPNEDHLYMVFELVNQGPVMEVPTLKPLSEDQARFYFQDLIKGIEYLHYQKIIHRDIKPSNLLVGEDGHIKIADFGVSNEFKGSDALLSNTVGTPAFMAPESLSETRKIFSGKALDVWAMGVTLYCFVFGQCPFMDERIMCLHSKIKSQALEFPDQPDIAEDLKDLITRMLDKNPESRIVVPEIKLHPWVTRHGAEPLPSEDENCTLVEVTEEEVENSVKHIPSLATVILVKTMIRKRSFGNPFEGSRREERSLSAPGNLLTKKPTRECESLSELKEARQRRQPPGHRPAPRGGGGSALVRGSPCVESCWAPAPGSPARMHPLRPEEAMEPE
Description: as §1

[3] = molecular target: T3, CK1γ2 (Homo sapiens, UniProt P78368)
T3 construct: lines 1-140) and Reaction Biology
T3 sequence (P78368 whole entry): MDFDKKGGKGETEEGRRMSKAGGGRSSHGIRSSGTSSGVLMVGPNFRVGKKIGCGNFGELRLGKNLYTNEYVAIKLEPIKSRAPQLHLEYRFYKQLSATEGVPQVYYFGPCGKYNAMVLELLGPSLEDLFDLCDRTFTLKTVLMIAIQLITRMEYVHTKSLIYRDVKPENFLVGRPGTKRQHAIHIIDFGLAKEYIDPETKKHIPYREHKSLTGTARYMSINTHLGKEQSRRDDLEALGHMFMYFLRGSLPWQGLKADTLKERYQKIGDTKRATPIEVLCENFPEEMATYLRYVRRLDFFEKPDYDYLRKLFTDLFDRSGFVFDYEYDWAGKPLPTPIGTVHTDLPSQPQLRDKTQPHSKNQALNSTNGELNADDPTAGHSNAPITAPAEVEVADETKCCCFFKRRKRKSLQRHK
Description: as §1

[4] = molecular target: T4, CK1δ (Homo sapiens, UniProt P48730)
T4 construct: lines 1-140) and Reaction Biology
T4 sequence (P48730 whole entry): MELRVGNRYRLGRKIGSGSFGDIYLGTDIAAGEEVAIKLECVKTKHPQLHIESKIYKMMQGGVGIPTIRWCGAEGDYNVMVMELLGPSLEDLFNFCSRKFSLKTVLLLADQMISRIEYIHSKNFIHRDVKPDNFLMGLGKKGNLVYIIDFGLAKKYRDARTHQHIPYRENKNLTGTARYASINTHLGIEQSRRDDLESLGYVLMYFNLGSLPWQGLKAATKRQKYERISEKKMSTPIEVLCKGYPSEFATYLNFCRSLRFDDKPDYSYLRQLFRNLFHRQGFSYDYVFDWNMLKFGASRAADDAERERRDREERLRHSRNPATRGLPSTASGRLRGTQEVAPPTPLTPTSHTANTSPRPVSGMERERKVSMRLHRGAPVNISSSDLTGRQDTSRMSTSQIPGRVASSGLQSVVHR
Description: as §1

[5] = molecular target: T5, EIF2AK3 (Homo sapiens, UniProt Q9NZJ5)
T5 construct: lines 1-140) and Reaction Biology
T5 sequence (Q9NZJ5 30-1116): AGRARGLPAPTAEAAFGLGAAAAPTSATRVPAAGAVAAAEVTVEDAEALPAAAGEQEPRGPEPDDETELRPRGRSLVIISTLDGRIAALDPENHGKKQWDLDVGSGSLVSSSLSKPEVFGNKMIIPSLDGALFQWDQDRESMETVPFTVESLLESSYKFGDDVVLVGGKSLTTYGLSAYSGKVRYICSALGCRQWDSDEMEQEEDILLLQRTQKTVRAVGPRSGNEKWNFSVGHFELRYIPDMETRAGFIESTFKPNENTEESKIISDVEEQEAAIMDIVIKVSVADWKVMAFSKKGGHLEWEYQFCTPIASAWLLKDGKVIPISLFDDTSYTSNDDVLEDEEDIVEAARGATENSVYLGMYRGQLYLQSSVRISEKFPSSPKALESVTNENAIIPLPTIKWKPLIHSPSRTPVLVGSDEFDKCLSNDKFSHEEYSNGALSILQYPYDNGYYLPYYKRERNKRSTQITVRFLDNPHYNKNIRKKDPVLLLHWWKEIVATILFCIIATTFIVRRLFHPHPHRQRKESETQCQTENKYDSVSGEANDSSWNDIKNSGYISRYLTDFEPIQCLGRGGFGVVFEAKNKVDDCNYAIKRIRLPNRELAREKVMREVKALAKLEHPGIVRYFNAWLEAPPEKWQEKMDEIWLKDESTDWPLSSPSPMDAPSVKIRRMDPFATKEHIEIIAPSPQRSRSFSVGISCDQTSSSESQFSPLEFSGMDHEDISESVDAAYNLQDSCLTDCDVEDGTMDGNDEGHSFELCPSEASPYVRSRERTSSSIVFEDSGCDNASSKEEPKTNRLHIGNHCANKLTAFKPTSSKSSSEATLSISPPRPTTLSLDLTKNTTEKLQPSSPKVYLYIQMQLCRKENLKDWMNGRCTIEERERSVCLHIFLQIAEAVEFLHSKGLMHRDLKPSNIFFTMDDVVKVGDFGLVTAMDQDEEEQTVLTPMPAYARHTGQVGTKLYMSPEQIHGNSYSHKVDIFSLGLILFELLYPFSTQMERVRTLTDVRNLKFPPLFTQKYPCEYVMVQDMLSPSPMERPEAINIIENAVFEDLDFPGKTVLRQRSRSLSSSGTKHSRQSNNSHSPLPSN
Description: as §1

[6] = molecular target: T6, ERK1 (Homo sapiens, UniProt P27361)
T6 construct: lines 1-140) and Reaction Biology
T6 sequence (P27361 whole entry): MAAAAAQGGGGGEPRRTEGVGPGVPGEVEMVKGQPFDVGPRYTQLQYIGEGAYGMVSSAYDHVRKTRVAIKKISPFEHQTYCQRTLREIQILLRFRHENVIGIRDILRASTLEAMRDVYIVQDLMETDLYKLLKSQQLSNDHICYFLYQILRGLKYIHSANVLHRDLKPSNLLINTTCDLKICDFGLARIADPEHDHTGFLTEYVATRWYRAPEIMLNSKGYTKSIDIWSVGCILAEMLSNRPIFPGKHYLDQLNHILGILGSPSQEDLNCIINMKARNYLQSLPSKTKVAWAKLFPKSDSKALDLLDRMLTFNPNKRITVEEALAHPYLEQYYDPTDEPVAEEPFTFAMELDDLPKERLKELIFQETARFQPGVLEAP
Description: as §1

[7] = molecular target: T7, ERK8 (Homo sapiens, UniProt Q8TD08)
T7 construct: lines 1-140) and Reaction Biology
T7 sequence (Q8TD08 1-544): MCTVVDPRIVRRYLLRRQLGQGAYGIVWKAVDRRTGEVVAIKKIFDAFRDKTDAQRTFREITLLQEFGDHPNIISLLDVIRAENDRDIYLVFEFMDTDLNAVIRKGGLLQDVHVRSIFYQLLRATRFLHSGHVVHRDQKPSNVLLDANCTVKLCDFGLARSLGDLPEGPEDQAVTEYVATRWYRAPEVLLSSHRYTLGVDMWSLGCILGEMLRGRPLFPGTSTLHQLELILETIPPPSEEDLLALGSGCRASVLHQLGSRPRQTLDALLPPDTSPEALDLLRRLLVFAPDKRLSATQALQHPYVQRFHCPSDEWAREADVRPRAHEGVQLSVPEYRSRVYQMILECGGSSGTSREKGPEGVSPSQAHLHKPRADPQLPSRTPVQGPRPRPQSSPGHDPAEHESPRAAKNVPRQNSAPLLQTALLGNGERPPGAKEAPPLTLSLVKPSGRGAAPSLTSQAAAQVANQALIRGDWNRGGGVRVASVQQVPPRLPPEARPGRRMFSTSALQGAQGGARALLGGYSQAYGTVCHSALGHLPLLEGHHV
Description: as §1

[8] = molecular target: T8, PKD1 (Homo sapiens, UniProt Q15139)
T8 construct: lines 1-140) and Reaction Biology
T8 sequence (Q15139 1-912): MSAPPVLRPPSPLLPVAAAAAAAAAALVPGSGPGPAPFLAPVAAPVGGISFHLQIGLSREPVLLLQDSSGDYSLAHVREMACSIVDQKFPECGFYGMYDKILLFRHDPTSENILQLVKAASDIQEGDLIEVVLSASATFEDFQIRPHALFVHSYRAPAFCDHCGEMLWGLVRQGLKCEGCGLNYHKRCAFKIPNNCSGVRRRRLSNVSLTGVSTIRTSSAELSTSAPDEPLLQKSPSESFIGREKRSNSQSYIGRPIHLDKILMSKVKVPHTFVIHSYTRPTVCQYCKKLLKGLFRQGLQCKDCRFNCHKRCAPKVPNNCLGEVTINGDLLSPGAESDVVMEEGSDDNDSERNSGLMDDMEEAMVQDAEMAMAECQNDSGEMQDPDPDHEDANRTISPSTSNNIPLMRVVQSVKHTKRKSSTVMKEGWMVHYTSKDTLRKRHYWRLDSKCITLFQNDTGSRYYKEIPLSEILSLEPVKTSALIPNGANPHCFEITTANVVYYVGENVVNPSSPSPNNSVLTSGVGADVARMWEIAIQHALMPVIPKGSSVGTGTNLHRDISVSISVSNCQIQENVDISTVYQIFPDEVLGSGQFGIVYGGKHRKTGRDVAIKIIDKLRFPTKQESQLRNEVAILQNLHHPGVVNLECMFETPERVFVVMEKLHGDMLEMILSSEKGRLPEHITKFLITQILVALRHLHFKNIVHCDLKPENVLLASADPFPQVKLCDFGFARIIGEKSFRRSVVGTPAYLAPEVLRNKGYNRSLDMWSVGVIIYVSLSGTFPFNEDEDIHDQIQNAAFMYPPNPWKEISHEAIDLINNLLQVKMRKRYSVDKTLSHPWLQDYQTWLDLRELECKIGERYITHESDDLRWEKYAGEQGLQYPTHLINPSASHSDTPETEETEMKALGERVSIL
Description: as §1

[9] = molecular target: T9, TTBK1 (Homo sapiens, UniProt Q5TCY1)
T9 construct: lines 1-140) and Reaction Biology
T9 sequence (Q5TCY1 whole entry): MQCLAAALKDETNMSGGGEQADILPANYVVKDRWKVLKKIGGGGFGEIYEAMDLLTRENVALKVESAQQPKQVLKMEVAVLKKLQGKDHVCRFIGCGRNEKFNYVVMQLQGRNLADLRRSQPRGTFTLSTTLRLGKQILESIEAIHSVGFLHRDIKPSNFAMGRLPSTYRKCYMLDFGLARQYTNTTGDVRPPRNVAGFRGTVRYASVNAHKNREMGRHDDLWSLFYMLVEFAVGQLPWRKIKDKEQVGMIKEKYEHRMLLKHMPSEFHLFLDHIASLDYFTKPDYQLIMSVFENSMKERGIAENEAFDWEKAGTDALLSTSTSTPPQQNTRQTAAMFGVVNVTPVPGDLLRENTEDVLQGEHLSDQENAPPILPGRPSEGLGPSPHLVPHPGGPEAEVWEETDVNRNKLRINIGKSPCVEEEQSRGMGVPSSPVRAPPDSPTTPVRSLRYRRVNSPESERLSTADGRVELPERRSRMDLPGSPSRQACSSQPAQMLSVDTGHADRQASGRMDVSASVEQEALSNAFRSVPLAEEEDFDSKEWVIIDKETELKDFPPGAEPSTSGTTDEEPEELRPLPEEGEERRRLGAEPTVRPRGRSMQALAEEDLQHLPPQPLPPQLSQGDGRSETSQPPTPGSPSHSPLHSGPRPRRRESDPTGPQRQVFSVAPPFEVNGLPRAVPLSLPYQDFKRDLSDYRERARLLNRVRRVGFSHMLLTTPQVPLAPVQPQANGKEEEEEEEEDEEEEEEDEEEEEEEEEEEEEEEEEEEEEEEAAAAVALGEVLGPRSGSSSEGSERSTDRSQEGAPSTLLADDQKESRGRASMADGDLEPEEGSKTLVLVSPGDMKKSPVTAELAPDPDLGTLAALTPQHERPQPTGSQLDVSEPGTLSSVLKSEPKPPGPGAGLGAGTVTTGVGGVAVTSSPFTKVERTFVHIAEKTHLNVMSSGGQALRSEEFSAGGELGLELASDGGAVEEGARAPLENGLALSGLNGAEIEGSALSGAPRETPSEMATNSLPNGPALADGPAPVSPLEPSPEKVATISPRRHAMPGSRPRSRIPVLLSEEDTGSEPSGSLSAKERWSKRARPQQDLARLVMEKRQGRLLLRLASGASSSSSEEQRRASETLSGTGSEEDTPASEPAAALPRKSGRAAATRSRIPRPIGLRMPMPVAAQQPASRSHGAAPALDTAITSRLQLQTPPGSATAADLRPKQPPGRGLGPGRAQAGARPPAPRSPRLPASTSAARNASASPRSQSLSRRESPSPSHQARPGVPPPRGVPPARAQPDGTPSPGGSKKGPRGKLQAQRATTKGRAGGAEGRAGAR
Description: as §1

T1 sequence (Q06187 whole entry): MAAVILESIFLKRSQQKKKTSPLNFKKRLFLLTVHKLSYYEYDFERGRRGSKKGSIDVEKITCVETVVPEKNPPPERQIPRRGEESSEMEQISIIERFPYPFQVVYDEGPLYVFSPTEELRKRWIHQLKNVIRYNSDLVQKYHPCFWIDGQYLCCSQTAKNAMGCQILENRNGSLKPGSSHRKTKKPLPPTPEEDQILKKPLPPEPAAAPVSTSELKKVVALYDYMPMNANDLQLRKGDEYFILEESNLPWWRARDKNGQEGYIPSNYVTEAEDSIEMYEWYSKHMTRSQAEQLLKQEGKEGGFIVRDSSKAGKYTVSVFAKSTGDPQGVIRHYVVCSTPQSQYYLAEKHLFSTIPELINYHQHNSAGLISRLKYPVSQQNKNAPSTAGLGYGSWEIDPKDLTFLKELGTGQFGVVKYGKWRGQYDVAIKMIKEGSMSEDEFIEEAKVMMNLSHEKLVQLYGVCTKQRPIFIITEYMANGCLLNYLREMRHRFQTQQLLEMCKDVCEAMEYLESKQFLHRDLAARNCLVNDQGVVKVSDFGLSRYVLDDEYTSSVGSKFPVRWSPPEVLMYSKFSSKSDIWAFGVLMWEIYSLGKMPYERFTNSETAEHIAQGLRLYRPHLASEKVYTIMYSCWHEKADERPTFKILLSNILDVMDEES

Structure (SMILES)	remaining activity at 1 µM [1]	remaining activity at 1 µM [2]	remaining activity at 1 µM [3]	remaining activity at 1 µM [4]	remaining activity at 1 µM [5]	remaining activity at 1 µM [6]	remaining activity at 1 µM [7]	remaining activity at 1 µM [8]	remaining activity at 1 µM [9]	residual activity ([1]; 1 μM)	residual activity ([2]; 1 μM)	residual activity ([3]; 1 μM)	residual activity ([4]; 1 μM)	residual activity ([5]; 1 μM)	residual activity ([6]; 1 μM)	residual activity ([7]; 1 μM)	residual activity ([8]; 1 μM)	residual activity ([9]; 1 μM)
O=C1Cc2c([nH]c3ccc(Br)cc23)-c2ccccc2N1 [Kenpaullone]	64%	72%	81%	104%	94%	78%	46%	100%	88%	–	–	–	–	–	–	–	–	–
O=C1Nc2ccc(I)cc2/C1=C/c1cc(Br)c(O)c(Br)c1 [GW5074]	75%	19%	68%	88%	85%	87%	35%	66%	62%	–	–	–	–	–	–	–	–	–
Nc1ncc(C(=O)NC2CN(C(=O)C3CC3)C2)c2ccc(-c3cccc(F)c3)nc12 [GNE-495]	–	–	–	–	–	–	–	–	–	82%	105%	107%	65%	100%	143%	95%	68%	97%
Oc1ncnc2c1c(-c1ccccc1)cn2-c1ccccc1 [F1386-0303, 5,7-diphenyl-7H-pyrrolo[2,3-d]pyrimidin-4-ol]	130%	98%	106%	107%	99%	124%	109%	103%	102%	–	–	–	–	–	–	–	–	–
COCCOc1ccc(-c2cn(-c3ccccc3)c3nc[nH]c(=O)c23)cc1 [DMX-5804, 5-[4-(2-methoxy-ethoxy)-phenyl]-7-phenyl-3,7-dihydro-pyrrolo[2,3-d]pyrimidin-4-one]	118%	77%	103%	94%	110%	107%	110%	102%	113%	–	–	–	–	–	–	–	–	–
